As a reminder, the pIC50 is −log10 of the IC50, conventionally taken in molar units. The term DC50 denotes the concentration at which degradation of the target reaches its halfway point.

pIC50: −log10 of the molar value. Read-outs that look alike come from different tables or passages of the source.

Our source for the IC50 and DC50 values is US11352350B2, “IRAK degraders and uses thereof” (Kymera Therapeutics, Inc., priority 2018, dated 2022).

The subject of one test is OCI-LY10. As to the kind of experiment: CTG Cell Viability Assay - OCI-LY10. It counts as cell-based, human. As to conditions: Homo sapiens, OCI-Ly10, 96 h, OCI-LY10, 4 days; read-out: CTG Cell Viability Assay - OCI-LY10: Average external-IC50. Summed up:
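Viability read by CellTiter-Glo luminescence after 4 days at 37° C under 5% CO2 with compound (top 10 μM final, 1:3 steps, 9 doses, DMSO 0.2%). Three-parameter logistic fit gave IC50.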

The target of the next test is IRAK4 (Homo sapiens (Human), UniProt Q9NWZ3). As to the kind of experiment: IRAK4 MSD degradation in OCI-LY10. It counts as cell-based. Summed up: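 Remaining IRAK4 quantified by electrochemiluminescent MSD sandwich assay with two anti-IRAK4 antibodies. Compounds were dosed as 8 concentrations in 1:3 steps from a 1 to 10 μM final top on OCI-LY10 cells, incubated 4 to 24 h at 37° C. under 5% CO2. DC50 fitted with a three-parameter logistic curve.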
Sequence of IRAK4 (Q9NWZ3 whole entry): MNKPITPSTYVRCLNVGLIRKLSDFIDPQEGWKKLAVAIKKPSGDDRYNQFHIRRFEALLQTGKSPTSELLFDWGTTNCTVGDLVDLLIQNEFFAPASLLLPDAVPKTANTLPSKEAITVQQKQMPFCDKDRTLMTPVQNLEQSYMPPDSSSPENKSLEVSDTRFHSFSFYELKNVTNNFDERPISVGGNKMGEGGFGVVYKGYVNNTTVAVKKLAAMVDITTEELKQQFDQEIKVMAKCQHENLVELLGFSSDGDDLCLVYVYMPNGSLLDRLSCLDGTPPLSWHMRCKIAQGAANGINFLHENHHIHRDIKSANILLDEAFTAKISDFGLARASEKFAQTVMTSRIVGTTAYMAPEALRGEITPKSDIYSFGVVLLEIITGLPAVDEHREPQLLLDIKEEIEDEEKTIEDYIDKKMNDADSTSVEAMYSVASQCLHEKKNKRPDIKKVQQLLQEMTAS

Where [1] appears, read: OCI-LY10, 4 hrs, MSD, read-out: IRAK4 MSD degradation in OCI-LY10 at 4 hrs: Average external-Abs DC50.
[2] abbreviates: OCI-LY10, 24 hrs, MSD, read-out: IRAK4 MSD degradation in OCI-LY10 at 24 hrs: Average external-Abs DC50.
The mark [3] stands for this setting: OCI-LY10, 4 hrs, read-out: IRAK4 MSD degradation in OCI-LY10 at 4 hrs: DC50.
Where [4] appears, read: OCI-LY10, 24 hrs, read-out: IRAK4 MSD degradation in OCI-LY10 at 24 hrs: DC50.

Consider `Cn1c(=O)n(C2CCC(=O)NC2=O)c2cccc(CCN3CC4(CCN(C[C@H]5CC[C@H](n6cc(NC(=O)c7cnn8ccc(N9CCOCC9)nc78)c(C(F)F)n6)CC5)CC4)C3)c21` (stereo partly shown) [I-183], for which the pIC50 in the test on OCI-LY10 was greater than 7.30. The DC50 at IRAK4 (setting [1]) and on IRAK4 (setting [2]) was less than 10 nM in each case.
As to `Cn1c(=O)n(C2CCC(=O)NC2=O)c2cccc(C3CCN(C[C@H]4CC[C@H](n5cc(NC(=O)c6cnn7ccc(N8CCOCC8)nc67)c(C(F)F)n5)CC4)CC3)c21` (stereo partly shown) [I-199], the negative logarithm of the IC50 (pIC50) in the test with OCI-LY10 is less than 6.00. The DC50 at IRAK4 (setting [1]) lay within 100 to 1000 nM.
Take `CN(C[C@H]1CC[C@H](n2cc(NC(=O)c3cnn4ccc(N5CCOCC5)nc34)c(C(F)F)n2)CC1)[C@H]1C[C@H](Nc2cccc3c2C(=O)N(C2CCC(=O)NC2=O)C3=O)C1` (stereo partly shown) [I-458]: in the test on OCI-LY10, the negative-log IC50 (pIC50) was less than 6.00. The results for the 50% degradation concentration (DC50) at IRAK4 (setting [3]) and on IRAK4 (setting [4]) were 100 to 1000 nM and greater than 1000 nM, respectively.
Consider `O=C1CCC(N2C(=O)c3cccc(N4CCC(CCN5CCC(n6cc(NC(=O)c7cnn8ccc(N9CCOCC9)nc78)c(C(F)F)n6)CC5)CC4)c3C2=O)C(=O)N1` (stereo not shown) [I-227], for which the pIC50 in the test on OCI-LY10 was greater than 7.30. In addition, at IRAK4 (setting [1]), the half-maximal degradation concentration (DC50) fell in the range of 100 to 1000 nM.
For the compound `CN(C[C@H]1CC[C@H](n2cc(NC(=O)c3cnn4ccc(NCC5CC5)nc34)c(C(F)F)n2)CC1)[C@H]1CC[C@H](Nc2cccc3c2C(=O)N(C2CCC(=O)NC2=O)C3=O)CC1` (stereo partly shown) [I-453], the negative logarithm of the IC50 (pIC50) in the test with OCI-LY10 was 7.00 to 7.30. For the same compound, the DC50 on IRAK4 (setting [3]) is 10 to 100 nM; at IRAK4 (setting [4]) it was less than 10 nM.
In the case of `CN(CCCOCCCNc1cccc2c1C(=O)N(C1CCC(=O)NC1=O)C2=O)C[C@H]1CC[C@H](n2cc(NC(=O)c3cnn4ccc(NCC5CC5)nc34)c(C(F)F)n2)CC1` (stereo partly shown) [I-437], in the test with OCI-LY10, the pIC50 was 6.30 to 7.00. In addition, the DC50 at IRAK4 (setting [1]) and at IRAK4 (setting [2]) was 10 to 100 nM each time.
With `Cn1c(=O)n(C2CCC(=O)NC2=O)c2cccc(CCCOCCOCCNC(=O)[C@H]3CC[C@@H](n4cc(NC(=O)c5coc(-c6ccnc(NCC7CC7)c6)n5)c(C(F)F)n4)CC3)c21` (stereo partly shown) [I-15], in the test with OCI-LY10, the pIC50 was less than 6.00. The 50% degradation concentration (DC50) on IRAK4 (setting [1]) and on IRAK4 (setting [2]) was 10 to 100 nM each time.
Consider `Cc1c[nH]c2ncnc(N[C@H]3CC[C@H](N4CCN(C(=O)COCCOCCOCCOCCCc5cccc6c5n(C)c(=O)n6C5CCC(=O)NC5=O)CC4)CC3)c12` (stereo partly shown) [I-25], for which the pIC50 with OCI-LY10 was less than 6.00. For the same compound, the half-maximal degradation concentration (DC50) at IRAK4 (setting [1]) and at IRAK4 (setting [2]) was greater than 1000 nM throughout.
On to `CC(C)[C@@H](CS(=O)(=O)C(C)C)N1C(=O)[C@@](C)(CC(=O)N2CCC(CCN(C)C[C@H]3CC[C@H](n4cc(NC(=O)c5coc(-c6ccnc(NCC7CC7)c6)n5)c(C(F)F)n4)CC3)CC2)C[C@H](c2cccc(Cl)c2)[C@H]1c1ccc(Cl)cc1` [I-147], for which the pIC50 in the test with OCI-LY10 is less than 6.00. For the same compound, the DC50 at IRAK4 (setting [1]) and at IRAK4 (setting [2]) was greater than 1000 nM in each case.
Regarding `CN(C[C@H]1CC[C@H](n2cc(NC(=O)c3coc(-c4ccnc(NCC5CC5)c4)n3)c(C(F)F)n2)CC1)C1CCN(Cc2cccc3c2n(C)c(=O)n3[C@H]2CCC(=O)NC2=O)CC1` [I-308, 2-(2-((cyclopropylmethyl)amino)pyridin-4-yl)-N-(3-(difluoromethyl)-1-((1S,4r)-4-(((1-((1-((S)-2,6-dioxopiperidin-3-yl)-3-methyl-2-oxo-2,3-dihydro-1H-benzo [d]imidazol-4-yl)methyl)piperidin-4-yl)(methyl)amino)methyl)cyclohexyl)-1H-pyrazol-4-yl)oxazole-4-carboxamide], the negative-log IC50 (pIC50) in the test on OCI-LY10 was greater than 7.30. In addition, on IRAK4 (setting [1]), the 50% degradation concentration (DC50) was less than 10 nM.
In the same order, the values of `CN(C(=O)CCCNc1cccc2c1C(=O)N(C1CCC(=O)NC1=O)C2=O)C1CCN(C[C@H]2CC[C@H](n3cc(NC(=O)c4cnn5ccc(N6C[C@H]7C[C@@H]6CO7)nc45)c(C(F)F)n3)CC2)CC1` (stereo partly shown) [I-366] are greater than 7.30 and less than 10 nM.
On to `CC[C@@H]1[C@H](F)C(=O)N[C@@H]1COc1ncc(C#CC2CCN(CCCOCCCc3cccc4c3n(C)c(=O)n4C3CCC(=O)NC3=O)CC2)c2cc(C(N)=O)c(OC)cc12` (stereo partly shown) [I-204], for which, in the test with OCI-LY10, the negative-log IC50 (pIC50) was less than 6.00. Besides, the 50% degradation concentration (DC50) fell in the range of 100 to 1000 nM on IRAK4 (setting [1]) and 10 to 100 nM on IRAK4 (setting [2]).
The like results for `CN(CCCc1ccc(CNc2cccc3c2C(=O)N(C2CCC(=O)NC2=O)C3=O)cc1)C[C@H]1CC[C@H](n2cc(NC(=O)c3cnn4ccc(N5C[C@H]6C[C@@H]5CO6)nc34)c(C(F)F)n2)CC1` (stereo partly shown) [I-361] were, in that order, 6.00 to 6.30, greater than 1000 nM and 10 to 100 nM.
Turning to `CN(CCCNc1cccc2c1C(=O)N(C1CCC(=O)NC1=O)C2=O)C1CCN(C[C@H]2CC[C@H](n3cc(NC(=O)c4cnn5ccc(N6CCOCC6)nc45)c(C(F)F)n3)CC2)CC1` (stereo partly shown) [I-231], the pIC50 in the test with OCI-LY10 is greater than 7.30. On IRAK4 (setting [1]), the 50% degradation concentration (DC50) fell in the range of 10 to 100 nM.
As to `CC(C)(O)c1nn([C@H]2CC[C@H](CN3CCC(OCCNc4cccc5c4C(=O)N(C4CCC(=O)NC4=O)C5=O)CC3)CC2)cc1NC(=O)c1cnn2ccc(N3CCOCC3)nc12` (stereo partly shown) [I-217], the pIC50 in the test on OCI-LY10 was 7.00 to 7.30. In addition, the DC50 on IRAK4 (setting [1]) is 100 to 1000 nM; on IRAK4 (setting [2]) it was greater than 1000 nM.
